Assay results published in patent US20230263822A1, “MODULATION OF FACTOR 11 EXPRESSION” (Ionis Pharmaceuticals, Inc., priority 2008, published 2023).
Strand notation (5' to 3'): a small letter for the sugar, then the base; units joined by * are phosphorothioate-linked, units joined directly phosphodiester-linked; [ ] holds rarer units or linkages, { } end groups; capitals alone tell only the bases. e = 2'-O-(2-methoxyethyl) (MOE); [5mC] = 5-methylcytosine; d = 2'-deoxy (DNA)

How the values were obtained:
human Factor 11 mRNA [1] = experiment: Dose-dependent inhibition of human Factor 11 in HepG2 cells, lipofectin 9.375-75 nM (Example 4); type: cell-based; conditions: for percent inhibition of Factor 11 at 9.375 nM / percent inhibition of Factor 11 at 18.75 nM / percent inhibition of Factor 11 at 37.5 nM / percent inhibition of Factor 11 at 75 nM: relative to untreated control cells
In short: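 HepG2 cells transfected via lipofectin with antisense oligonucleotide at 9.375, 18.75, 37.5 or 75 nM for about 16 h. Factor 11 mRNA quantified by real-time RT-PCR (primer probe set RTS 2966) and normalized to total RNA (RIBOGREEN). Results expressed as percent inhibition versus untreated cells.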

human Factor 11 mRNA [2] = experiment: Antisense inhibition of human Factor 11 in HepG2 cells, electroporation, 8,000 nM (Example 30); type: cell-based; conditions: electroporation, 8,000 nM antisense oligonucleotide
In short: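 HepG2 cells electroporated with 8,000 nM 5-10-5, 5-8-5 or 6-8-6 MOE gapmers (phosphorothioate, 5-methylcytidine), ~24 h. Factor 11 mRNA quantified by qRT-PCR, normalised to RIBOGREEN total RNA. Reported as percent inhibition versus untreated cells.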

human Factor 11 mRNA [3] = experiment: Dose-dependent inhibition of human Factor 11 in HepG2 cells, electroporation 0.7-20 uM (Example 4); type: cell-based; conditions: for percent inhibition of Factor 11 at 0.7 μM / percent inhibition of Factor 11 at 2.2 μM / percent inhibition of Factor 11 at 6.7 μM / percent inhibition of Factor 11 at 20 μM: relative to untreated control cells
In short: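 HepG2 cells electroporated with antisense gapmers at 0.7, 2.2, 6.7 and 20 μM, treated ~16 h. Factor 11 mRNA quantified by qRT-PCR (primer probe set RTS 2966), normalised to RIBOGREEN total RNA; expressed as percent inhibition versus untreated control cells.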

[4] = Tolerability in Sprague-Dawley rats: kidney function, urine protein/creatinine (Example 35); conditions: for Urine protein/creatinine ratio: Sprague Dawley rats; for BUN / Creatinine: Sprague-Dawley rats, plasma
[5] = After treatment, 50 mg/kg s.c. twice per week for 6 weeks
[6] = Before antisense oligonucleotide treatment
[7] = 50 mg/kg s.c. twice per week for 6 weeks

412206 (antisense e[5mC]*e[5mC]*eG*eT*eG*d[5mC]*dA*dT*d[5mC]*dT*dT*dT*d[5mC]*dT*dT*eG*eG*e[5mC]*eA*eT) [compound 412206]
IC50 (human Factor 11 mRNA [1]): 21 nM
percent inhibition of Factor 11 at 9.375 nM (human Factor 11 mRNA [1]): 24%
percent inhibition of Factor 11 at 18.75 nM (human Factor 11 mRNA [1]): 47%
percent inhibition of Factor 11 at 37.5 nM (human Factor 11 mRNA [1]): 69%
percent inhibition of Factor 11 at 75 nM (human Factor 11 mRNA [1]): 86%
Percent inhibition of human Factor 11 mRNA levels (human Factor 11 mRNA [2]): 91%
IC50 (human Factor 11 mRNA [3]): 2700 nM
percent inhibition of Factor 11 at 0.7 μM (human Factor 11 mRNA [3]): 22%
percent inhibition of Factor 11 at 2.2 μM (human Factor 11 mRNA [3]): 39%
percent inhibition of Factor 11 at 6.7 μM (human Factor 11 mRNA [3]): 81%
percent inhibition of Factor 11 at 20 μM (human Factor 11 mRNA [3]): 94%

412223 (antisense ACAGTTTCTGGCAGGCCTCG; 5-10-5 MOE gapmer, further chemistry not given here) [compound 412223]
Percent inhibition of human Factor 11 mRNA levels (human Factor 11 mRNA [2]): 62%

412224 (antisense GCATTGGTGCACAGTTTCTG; 5-10-5 MOE gapmer, further chemistry not given here) [compound 412224]
Percent inhibition of human Factor 11 mRNA levels (human Factor 11 mRNA [2]): 84%

412225 (antisense GCAGCGGACGGCATTGGTGC; 5-10-5 MOE gapmer, further chemistry not given here) [compound 412225]
Percent inhibition of human Factor 11 mRNA levels (human Factor 11 mRNA [2]): 86%

413482 (antisense GGACGGCATTGGTGCACAGT; 5-10-5 MOE gapmer, further chemistry not given here) [compound 413482]
Percent inhibition of human Factor 11 mRNA levels (human Factor 11 mRNA [2]): 88%

416826 (antisense ATGCCCTTCATGTCTAGGTC; 5-10-5 gapmer, further chemistry not given here) [compound 416826]
IC50 (human Factor 11 mRNA [1]): 29 nM
percent inhibition of Factor 11 at 9.375 nM (human Factor 11 mRNA [1]): 8%
percent inhibition of Factor 11 at 18.75 nM (human Factor 11 mRNA [1]): 36%
percent inhibition of Factor 11 at 37.5 nM (human Factor 11 mRNA [1]): 58%
percent inhibition of Factor 11 at 75 nM (human Factor 11 mRNA [1]): 84%
Urine protein/creatinine ratio [4, 5]: 11.4
Urine protein/creatinine ratio [4, 6]: 1.0
IC50 (human Factor 11 mRNA [3]): 3200 nM
percent inhibition of Factor 11 at 0.7 μM (human Factor 11 mRNA [3]): 2%
percent inhibition of Factor 11 at 2.2 μM (human Factor 11 mRNA [3]): 47%
percent inhibition of Factor 11 at 6.7 μM (human Factor 11 mRNA [3]): 86%
percent inhibition of Factor 11 at 20 μM (human Factor 11 mRNA [3]): 82%

416838 (antisense GCAACCGGGATGATGAGTGC; 5-10-5 gapmer, further chemistry not given here) [compound 416838]
IC50 (human Factor 11 mRNA [1]): 19 nM
percent inhibition of Factor 11 at 9.375 nM (human Factor 11 mRNA [1]): 31%
percent inhibition of Factor 11 at 18.75 nM (human Factor 11 mRNA [1]): 51%
percent inhibition of Factor 11 at 37.5 nM (human Factor 11 mRNA [1]): 64%
percent inhibition of Factor 11 at 75 nM (human Factor 11 mRNA [1]): 86%
Urine protein/creatinine ratio [4, 5]: 3.7
Urine protein/creatinine ratio [4, 6]: 1.2
IC50 (human Factor 11 mRNA [3]): 5100 nM
percent inhibition of Factor 11 at 0.7 μM (human Factor 11 mRNA [3]): 5%
percent inhibition of Factor 11 at 2.2 μM (human Factor 11 mRNA [3]): 30%
percent inhibition of Factor 11 at 6.7 μM (human Factor 11 mRNA [3]): 55%
percent inhibition of Factor 11 at 20 μM (human Factor 11 mRNA [3]): 83%

416856 (antisense GGCATTGGTGCACAGTTTCT; 5-10-5 gapmer, further chemistry not given here) [compound 416856]
IC50 (human Factor 11 mRNA [1]): 27 nM
percent inhibition of Factor 11 at 9.375 nM (human Factor 11 mRNA [1]): 21%
percent inhibition of Factor 11 at 18.75 nM (human Factor 11 mRNA [1]): 45%
percent inhibition of Factor 11 at 37.5 nM (human Factor 11 mRNA [1]): 58%
percent inhibition of Factor 11 at 75 nM (human Factor 11 mRNA [1]): 74%
Percent inhibition of human Factor 11 mRNA levels (human Factor 11 mRNA [2]): 84%
IC50 (human Factor 11 mRNA [3]): 5100 nM
percent inhibition of Factor 11 at 0.7 μM (human Factor 11 mRNA [3]): 0%
percent inhibition of Factor 11 at 2.2 μM (human Factor 11 mRNA [3]): 29%
percent inhibition of Factor 11 at 6.7 μM (human Factor 11 mRNA [3]): 47%
percent inhibition of Factor 11 at 20 μM (human Factor 11 mRNA [3]): 93%

416892 (antisense GCCCTTCATGTCTAGGTCCA; 3-14-3 chimeric gapmer, further chemistry not given here) [compound 416892]
IC50 (human Factor 11 mRNA [1]): 23 nM
percent inhibition of Factor 11 at 9.375 nM (human Factor 11 mRNA [1]): 16%
percent inhibition of Factor 11 at 18.75 nM (human Factor 11 mRNA [1]): 50%
percent inhibition of Factor 11 at 37.5 nM (human Factor 11 mRNA [1]): 70%
percent inhibition of Factor 11 at 75 nM (human Factor 11 mRNA [1]): 85%
Urine protein/creatinine ratio [4, 5]: 21.3
Urine protein/creatinine ratio [4, 6]: 0.8
IC50 (human Factor 11 mRNA [3]): 2500 nM
percent inhibition of Factor 11 at 0.7 μM (human Factor 11 mRNA [3]): 14%
percent inhibition of Factor 11 at 2.2 μM (human Factor 11 mRNA [3]): 52%
percent inhibition of Factor 11 at 6.7 μM (human Factor 11 mRNA [3]): 82%
percent inhibition of Factor 11 at 20 μM (human Factor 11 mRNA [3]): 92%

416925 (antisense GGTGCACAGTTTCTGGCAGG; 3-14-3 gapmer chemistry, further chemistry not given here) [compound 416925]
IC50 (human Factor 11 mRNA [1]): 30 nM
percent inhibition of Factor 11 at 9.375 nM (human Factor 11 mRNA [1]): 13%
percent inhibition of Factor 11 at 18.75 nM (human Factor 11 mRNA [1]): 38%
percent inhibition of Factor 11 at 37.5 nM (human Factor 11 mRNA [1]): 59%
percent inhibition of Factor 11 at 75 nM (human Factor 11 mRNA [1]): 75%
Urine protein/creatinine ratio [4, 5]: 4.3
Urine protein/creatinine ratio [4, 6]: 1.0
IC50 (human Factor 11 mRNA [3]): 3900 nM
percent inhibition of Factor 11 at 0.7 μM (human Factor 11 mRNA [3]): 0%
percent inhibition of Factor 11 at 2.2 μM (human Factor 11 mRNA [3]): 40%
percent inhibition of Factor 11 at 6.7 μM (human Factor 11 mRNA [3]): 76%
percent inhibition of Factor 11 at 20 μM (human Factor 11 mRNA [3]): 80%

416999 (antisense GCACAGTTTCTGGCAGGCCT; 2-13-5 gapmer chemistry, further chemistry not given here) [compound 416999]
IC50 (human Factor 11 mRNA [1]): 30 nM
percent inhibition of Factor 11 at 9.375 nM (human Factor 11 mRNA [1]): 24%
percent inhibition of Factor 11 at 18.75 nM (human Factor 11 mRNA [1]): 37%
percent inhibition of Factor 11 at 37.5 nM (human Factor 11 mRNA [1]): 55%
percent inhibition of Factor 11 at 75 nM (human Factor 11 mRNA [1]): 73%
Urine protein/creatinine ratio [4, 5]: 9.1
Urine protein/creatinine ratio [4, 6]: 1.3
IC50 (human Factor 11 mRNA [3]): 2800 nM
percent inhibition of Factor 11 at 0.7 μM (human Factor 11 mRNA [3]): 20%
percent inhibition of Factor 11 at 2.2 μM (human Factor 11 mRNA [3]): 42%
percent inhibition of Factor 11 at 6.7 μM (human Factor 11 mRNA [3]): 77%
percent inhibition of Factor 11 at 20 μM (human Factor 11 mRNA [3]): 88%

417002 (antisense GGTGCACAGTTTCTGGCAGG; 2-13-5 gapmer chemistry, further chemistry not given here) [compound 417002]
IC50 (human Factor 11 mRNA [1]): 19 nM
percent inhibition of Factor 11 at 9.375 nM (human Factor 11 mRNA [1]): 35%
percent inhibition of Factor 11 at 18.75 nM (human Factor 11 mRNA [1]): 52%
percent inhibition of Factor 11 at 37.5 nM (human Factor 11 mRNA [1]): 67%
percent inhibition of Factor 11 at 75 nM (human Factor 11 mRNA [1]): 70%
Urine protein/creatinine ratio [4, 5]: 2.4
Urine protein/creatinine ratio [4, 6]: 1.0
IC50 (human Factor 11 mRNA [3]): 2200 nM
percent inhibition of Factor 11 at 0.7 μM (human Factor 11 mRNA [3]): 32%
percent inhibition of Factor 11 at 2.2 μM (human Factor 11 mRNA [3]): 38%
percent inhibition of Factor 11 at 6.7 μM (human Factor 11 mRNA [3]): 82%
percent inhibition of Factor 11 at 20 μM (human Factor 11 mRNA [3]): 91%

417003 (antisense TGGTGCACAGTTTCTGGCAG; 2-13-5 gapmer chemistry, further chemistry not given here) [compound 417003]
IC50 (human Factor 11 mRNA [1]): 33 nM
percent inhibition of Factor 11 at 9.375 nM (human Factor 11 mRNA [1]): 26%
percent inhibition of Factor 11 at 18.75 nM (human Factor 11 mRNA [1]): 44%
percent inhibition of Factor 11 at 37.5 nM (human Factor 11 mRNA [1]): 60%
percent inhibition of Factor 11 at 75 nM (human Factor 11 mRNA [1]): 56%
Urine protein/creatinine ratio [4, 5]: 4.8
Urine protein/creatinine ratio [4, 6]: 0.9
IC50 (human Factor 11 mRNA [3]): 3900 nM
percent inhibition of Factor 11 at 0.7 μM (human Factor 11 mRNA [3]): 0%
percent inhibition of Factor 11 at 2.2 μM (human Factor 11 mRNA [3]): 34%
percent inhibition of Factor 11 at 6.7 μM (human Factor 11 mRNA [3]): 75%
percent inhibition of Factor 11 at 20 μM (human Factor 11 mRNA [3]): 89%

ISIS 416838: MOE gapmer, nucleobases 1018 to 1042 of SEQ ID NO: 1 (Table 6) (antisense GCAACCGGGATGATGAGTGC; MOE gapmer, wing and gap sizes not given here)
BUN [4, 7]: 4 mg/dL
Creatinine [4, 7]: 5 mg/dL

ISIS 416864: MOE gapmer, nucleobases 1275 to 1318 of SEQ ID NO: 1 (Table 8) (antisense GGCAGCGGACGGCATTGGTG; MOE gapmer, wing and gap sizes not given here)
BUN [4, 7]: 5 mg/dL
Creatinine [4, 7]: 6 mg/dL

ISIS 417002: MOE gapmer, nucleobases 1275 to 1318 of SEQ ID NO: 1 (Table 8) (antisense GGTGCACAGTTTCTGGCAGG; MOE gapmer, wing and gap sizes not given here)
BUN [4, 7]: 11 mg/dL
Creatinine [4, 7]: 1 mg/dL
